From PMC7377239, “Cardiovascular Effects of Polychlorinated Biphenyls and Their Major Metabolites” (Environmental Health Perspectives, 2020)
Read-outs that look alike come from different tables or passages of the source.

Experiments:
[1] = system: iCell endothelial cells (human iPSC-derived ECs); assay: Tube formation (tubulogenesis) assay in iCell endothelial cells, 18 h; format: cell-based; details: Homo sapiens, Endothelial cell, endothelial cells (endo), 18 hr
How it was run: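 Tube formation was measured by calcein AM imaging after overnight compound exposure (37°C, 0.5% DMSO vehicle) of human iPSC-derived ECs, 7,500/well, on reduced-growth-factor Geltrex in starvation medium. Vehicle-normalized data fitted to four-parameter logistic; POD set at one vehicle SD; without response, 100 μM taken as NOAEL.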

HUVECs = assay: High-content imaging cytotoxicity in HUVECs, 24 h; format: cell-based, human; details: Homo sapiens, HUVEC, 24 h, HUVEC, 24 hr
How it was run: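 Confluent HUVEC monolayers, passages 1–5, received test chemicals for 24 h. Cytotoxicity was scored from triple-stain high-content images, with PODs defined by a one-SD deviation from 0.5% DMSO vehicle controls.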

For Clc1ccc(-c2cc(Cl)c(Cl)c(Cl)c2)cc1Cl [PCB 126, 3,3′,4,4′,5-pentachlorobiphenyl], the minimal effective concentration ([1]; tube formation mtl, read-out: POD endo.mtl.18hr) was 28.1 µM, the minimal effective concentration ([1]; tube formation tlps, read-out: POD endo.tlps.18hr) was 4.68 µM and the minimal effective concentration ([1]; tube formation tta, read-out: POD endo.tta.18hr) was 25.7 µM. For the same compound, the minimal effective concentration ([1]; tube formation ttl, read-out: POD endo.ttl.18hr) was 38.9 µM, the minimal effective concentration (HUVECs; cyto, read-out: POD huvec.cyto.24hr) was 5.33 µM and the minimal effective concentration (HUVECs; mito, read-out: POD huvec.mito.24hr) was 100 µM. The minimal effective concentration (HUVECs; mitoint, read-out: POD huvec.mitoint.24hr) was 100 µM, the minimal effective concentration (HUVECs; nma, read-out: POD huvec.nma.24hr) was 100 µM and the minimal effective concentration (HUVECs; tc, read-out: POD huvec.tc.24hr) was 5.33 µM.
